In patent US4421768A, “Fluorinated diamino-heptene and-heptyne derivatives” (Merrell Toraude et Compagnie, priority 1982, dated 1983):
Structures can show the parent of a compound that is named as a salt. Where two headings read alike, the source gives them in different places.

Molecular target: T1, Ornithine decarboxylase (ODC) (Rattus norvegicus, UniProt P09057)
T1 construct: prepared from the livers of rats which have been injected with thioacetamide; from tissue; host or cells: liver of thioacetamide-injected rats, purified about ten fold by acid treatment at pH 4.6
T1 sequence (P09057 1-461): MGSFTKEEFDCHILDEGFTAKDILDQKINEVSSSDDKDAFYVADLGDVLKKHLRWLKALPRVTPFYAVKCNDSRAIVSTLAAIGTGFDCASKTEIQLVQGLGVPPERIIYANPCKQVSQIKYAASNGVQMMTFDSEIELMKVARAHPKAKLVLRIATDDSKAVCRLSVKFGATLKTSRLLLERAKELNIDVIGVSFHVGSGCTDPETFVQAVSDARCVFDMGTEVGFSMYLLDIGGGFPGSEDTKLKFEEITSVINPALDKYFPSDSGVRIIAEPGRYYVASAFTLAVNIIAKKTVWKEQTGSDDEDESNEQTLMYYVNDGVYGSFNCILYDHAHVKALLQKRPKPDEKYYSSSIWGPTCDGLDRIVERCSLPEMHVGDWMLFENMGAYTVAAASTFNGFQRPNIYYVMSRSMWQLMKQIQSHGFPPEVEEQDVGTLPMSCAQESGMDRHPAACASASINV
Assay: In vitro inhibition of ornithine decarboxylase (ODC) prepared from livers of thioacetamide-injected rats (time-dependent inactivation, 14CO2 release)
Type: biochemical
Method: Ornithine decarboxylase (ODC) is prepared from the livers of rats which have been injected with thioacetamide (150 mg/kg of body weight) 18 hrs before sacrifice, and is purified about ten fold by acid treatment at pH 4.6 as described by Ono et al (Biochem. Biophys. Acta 284, 285 (1972)). The stock solution of ODC is comprised of protein (16 mg/mL), sodium phosphate buffer (30 mM, pH 7.1), dithiothreitol (5 mM) and pyridoxal phosphate (0.1 mM). The specific activity of this stock solution is 0.12 nmol of CO2 /min per mg of protein. For a typical experiment 320 μl of this stock solution are mixed at time 0 with 80 μl of a solution of the inhibitor in water and incubated at 37°. At different times 50 μl aliquots are transferred into a 1-mL assay medium containing sodium phosphate (30 mM, pH 7.1), dithiothreitol (5 mM), pyridoxal phosphate (0.1 mM), L-ornithine (0.081 μmol), and DL-[1-^14 C] ornithine (0.043 μmol, 58 Ci/mol, Amersham) in a closed vessel in which a filter paper moistered with 50 μl hyamine hydroxide (1 M) is fitted. The reaction is allowed to proceed for 60 min at 37° C. and then terminated by addition of 0.5 ml of 40% trichloroacetic acid. After an additional 30 min the CO2 absorbed on the filter paper is counted in a standard scintillation cocktail, KI (apparent dissociation constant) and .tau.50 (half-life, at infinite concentration of inhibitor are calculated according to the method of Kitz and Wilson (J. Biol. Chem., 237, 3245 (1962)).
When tested according to the above-described procedure, the compounds of Examples I and 2 gave the results shown below. Half-life (t1/2) at 10 μM is also set forth below.

| Structure (SMILES) | Ki (rat liver ODC, 37°, pH 7.1, calculated by method of Kitz and Wilson, read-out: KI (apparent dissociation constant)) [µM] | T50 (.tau.50, half-life at infinite concentration of inhibitor) (rat liver ODC, 37°, pH 7.1, infinite concentration of inhibitor, method of Kitz and Wilson) [min] | t1/2 (half-life at 10 μM) (rat liver ODC, 37°, pH 7.1, inhibitor 10 μM) [min] | Ki [µM] |
| --- | --- | --- | --- | --- |
| C#CC(N)CCC(N)CF.Cl.Cl (stereo not shown) [Example 1, 1-FLUORO-2,5-DIAMINO-6-HEPTYNE DIHYDROCHLORIDE] | 50 | 3.7 | 22 |  |
| C#CC(N)CCC(N)C(F)F (stereo not shown) [Example 2, 1,1-DIFLUORO-2,5-DIAMINO-6-HEPTYNE, DIHYDROCHLORIDE] |  |  |  | 1500 |
